According to ChEMBL document CHEMBL4138213, “Synthesis and biological characterization of ubenimex-fluorouracil conjugates for anti-cancer therapy” (Eur J Med Chem, 2018):
Activity calls are given as the source filed them. The rule behind the calls is not given here.

Key:
PLC-PRF-5 [1] = assay: Antiproliferative activity against human PLC/PRF/5 cells after 48 hrs by MTT assay; conditions: PLC-PRF-5, 48 h
PLC-PRF-5 [2] = assay: Antiproliferative activity against human PLC/PRF/5 cells in presence of ubenimex after 48 hrs by MTT assay; assay type: functional, cell-based; conditions: PLC-PRF-5, 48 h
U-266 [3] = assay: Antiproliferative activity against human U266 cells after 48 hrs by MTT assay; conditions: U-266, 48 h
A549 [4] = assay: Antiproliferative activity against human A549 cells after 48 hrs by MTT assay; conditions: A549, 48 h
[5] = Antiproliferative activity against human H7402 cells after 48 hrs by MTT assay; conditions: H7402, 48 h
U-937 [6] = assay: Antiproliferative activity against human U937 cells in presence of ubenimex after 48 hrs by MTT assay; assay type: functional, cell-based; conditions: U-937, 48 h
U-266 [7] = assay: Antiproliferative activity against human U266 cells in presence of ubenimex after 48 hrs by MTT assay; assay type: functional, cell-based; conditions: U-266, 48 h
PLC-PRF-5 [8] = assay: Induction of apoptosis in human PLC/PRF/5 cells assessed as early apoptotic cells at 20 uM after 48 hrs by annexin-V-FITC/propidium iodide staining-based flow cytometric method (reference value: 5.82%); assay type: functional
PLC-PRF-5 [9] = assay: Induction of apoptosis in human PLC/PRF/5 cells assessed as late apoptotic cells at 20 uM after 48 hrs by annexin-V-FITC/propidium iodide staining-based flow cytometric method (reference value: 0.341%); assay type: functional
PLC-PRF-5 [10] = assay: Induction of apoptosis in human PLC/PRF/5 cells assessed as necrotic cells at 20 uM after 48 hrs by annexin-V-FITC/propidium iodide staining-based flow cytometric method (reference value: 0.106%); assay type: functional
PLC-PRF-5 [11] = assay: Induction of apoptosis in human PLC/PRF/5 cells assessed as viable cells at 20 uM after 48 hrs by annexin-V-FITC/propidium iodide staining-based flow cytometric method (reference value: 93.7%); assay type: functional; conditions: PLC-PRF-5, 48 h, read-out: Activity
PLC-PRF-5 [12] = assay: Induction of apoptosis in human PLC/PRF/5 cells assessed as early apoptotic cells at 20 uM in presence of ubenimex after 48 hrs by annexin-V-FITC/propidium iodide staining-based flow cytometric method (reference value: 5.82%); assay type: functional
PLC-PRF-5 [13] = assay: Induction of apoptosis in human PLC/PRF/5 cells assessed as late apoptotic cells at 20 uM in presence of ubenimex after 48 hrs by annexin-V-FITC/propidium iodide staining-based flow cytometric method (reference value: 0.341%); assay type: functional
PLC-PRF-5 [14] = assay: Induction of apoptosis in human PLC/PRF/5 cells assessed as necrotic cells at 20 uM in presence of ubenimex after 48 hrs by annexin-V-FITC/propidium iodide staining-based flow cytometric method (reference value: 0.106%); assay type: functional
PLC-PRF-5 [15] = assay: Induction of apoptosis in human PLC/PRF/5 cells assessed as viable cells at 20 uM in presence of ubenimex after 48 hrs by annexin-V-FITC/propidium iodide staining-based flow cytometric method (reference value: 93.7%); assay type: functional; conditions: PLC-PRF-5, 48 h, read-out: Activity
PLC-PRF-5 [16] = assay: Downregulation of CD13 expression in human PLC/PRF/5 cells at 10 uM after 48 hrs by flow cytometric method; assay type: functional, cell-based
PLC-PRF-5 [17] = assay: Downregulation of CD13 expression in human PLC/PRF/5 cells at 10 uM in presence of ubenimex after 48 hrs by flow cytometric method; assay type: functional, cell-based
[18] = Drug level in human plasma treated with (5-fluoro-2,4-dioxo-3,4-dihydropyrimidin1(2H)-yl)methyl-2-((S)-2-((2S,3R)-3-amino-2-hydroxy-4-phenylbut-anamido)-4-methylpentanamido)acetate hydrochloride at 4 mg/ml after 8 hrs by HPLC method; assay type: ADME, cell-free
[19] = Drug level in Wistar rat plasma treated with (5-fluoro-2,4-dioxo-3,4-dihydropyrimidin1(2H)-yl)methyl-2-((S)-2-((2S,3R)-3-amino-2-hydroxy-4-phenylbut-anamido)-4-methylpentanamido)acetate hydrochloride assessed as carboxylesterase-mediated compound formation at 80 mg/kg, iv by HPLC-MS/MS analysis; assay type: ADME, organism-based; conditions: in vivo
H22 = assay: Antitumor activity against 5-FU-resistant […] cells xenografted in Kunming mouse at 20 mg/kg, ip after 14 days; assay type: functional, organism-based
[20] = AUC (0 to infinity) in Wistar rat at 80 mg/kg, iv after 0.05 to 24 hrs by HPLC-MS/MS analysis; assay type: ADME, organism-based; parameters: dose 80 mg/kg, time infinity, route intravenous; conditions: in vivo
[21] = MRT (0 to infinity) in Wistar rat at 80 mg/kg, iv after 0.05 to 24 hrs by HPLC-MS/MS analysis; assay type: ADME, organism-based; conditions: Wistar, in vivo
Rattus norvegicus = assay: VRT (0 to infinity) in Wistar rat at 80 mg/kg, iv after 0.05 to 24 hrs by HPLC-MS/MS analysis; assay type: ADME, organism-based; conditions: in vivo
[22] = Apparent clearance in Wistar rat at 80 mg/kg, iv after 0.05 to 24 hrs by HPLC-MS/MS analysis; assay type: ADME, organism-based; conditions: in vivo, read-out: CL(app) (converted)
[23] = Volume of distribution during elimination phase in Wistar rat at 80 mg/kg, iv after 0.05 to 24 hrs by HPLC-MS/MS analysis; assay type: ADME, organism-based; conditions: in vivo, read-out: Vz
[24] = Terminal Half life in Wistar rat at 80 mg/kg, iv after 0.05 to 24 hrs by HPLC-MS/MS analysis; assay type: ADME, organism-based; conditions: Wistar, in vivo, read-out: beta t1/2 (converted)
[25] = Cmax in Wistar rat at 80 mg/kg, iv after 0.05 to 24 hrs by HPLC-MS/MS analysis; assay type: ADME, organism-based; parameters: dose 80 mg/kg, route intravenous; conditions: in vivo
cells [26] = conditions: Homo sapiens, ES-2, 48 h
Description: Antiproliferative activity against human ES2 cells after 48 hrs by MTT assay

cells [27] = conditions: Homo sapiens, ES-2, 48 h; remark: listed apart in the source
U-937 [28] = assay: cells; conditions: Homo sapiens, U-937, 48 h
Description: Antiproliferative activity against human U937 cells after 48 hrs by MTT assay

HCT-116 [29] = assay: cells; conditions: Homo sapiens, HCT-116, 48 h
HepG2 [30] = assay: cells; conditions: Homo sapiens, HepG2, 48 h
HCT-116 [31] = assay: cells; conditions: Homo sapiens, HCT-116, 48 h; remark: listed apart in the source
cells [32] = conditions: Homo sapiens, H7402, 48 h
HepG2 [33] = assay: cells; conditions: Homo sapiens, HepG2, 48 h; remark: listed apart in the source
PLC-PRF-5 [34] = assay: Antiproliferative activity against human PLC/PRF/5 cells in presence of 5-FU after 48 hrs by MTT assay; assay type: functional, cell-based; conditions: PLC-PRF-5, 48 h
[35] = Antiproliferative activity against human ES2 cells in presence of 5-FU after 48 hrs by MTT assay; conditions: ES-2, 48 h
U-937 [36] = assay: Antiproliferative activity against human U937 cells in presence of 5-FU after 48 hrs by MTT assay; conditions: U-937, 48 h
U-266 [37] = assay: Antiproliferative activity against human U266 cells in presence of 5-FU after 48 hrs by MTT assay; assay type: functional, cell-based; conditions: U-266, 48 h
HCT-116 [38] = assay: Antiproliferative activity against human HCT116 cells in presence of 5-FU after 48 hrs by MTT assay; conditions: HCT-116, 48 h
A549 [39] = assay: Antiproliferative activity against human A549 cells in presence of 5-FU after 48 hrs by MTT assay; conditions: A549, 48 h
[40] = Antiproliferative activity against human H7402 cells in presence of 5-FU after 48 hrs by MTT assay; conditions: H7402, 48 h
HepG2 [41] = assay: Antiproliferative activity against human HepG2 cells in presence of 5-FU after 48 hrs by MTT assay; assay type: functional, cell-based; conditions: HepG2, 48 h
PLC-PRF-5 [42] = assay: Induction of apoptosis in human PLC/PRF/5 cells assessed as early apoptotic cells at 20 uM in presence of 5-FU after 48 hrs by annexin-V-FITC/propidium iodide staining-based flow cytometric method (reference value: 5.82%); assay type: functional
PLC-PRF-5 [43] = assay: Induction of apoptosis in human PLC/PRF/5 cells assessed as late apoptotic cells at 20 uM in presence of 5-FU after 48 hrs by annexin-V-FITC/propidium iodide staining-based flow cytometric method (reference value: 0.341%); assay type: functional
PLC-PRF-5 [44] = assay: Induction of apoptosis in human PLC/PRF/5 cells assessed as necrotic cells at 20 uM in presence of 5-FU after 48 hrs by annexin-V-FITC/propidium iodide staining-based flow cytometric method (reference value: 0.106%); assay type: functional
PLC-PRF-5 [45] = assay: Induction of apoptosis in human PLC/PRF/5 cells assessed as viable cells at 20 uM in presence of 5-FU after 48 hrs by annexin-V-FITC/propidium iodide staining-based flow cytometric method (reference value: 93.7%); assay type: functional; conditions: PLC-PRF-5, 48 h, read-out: Activity
PLC-PRF-5 [46] = assay: Downregulation of CD13 expression in human PLC/PRF/5 cells at 10 uM in presence of 5-FU after 48 hrs by flow cytometric method; assay type: functional, cell-based
[47] = Drug level in Wistar rat plasma treated with (5-fluoro-2,4-dioxo-3,4-dihydropyrimidin1(2H)-yl)methyl-2-((S)-2-((2S,3R)-3-amino-2-hydroxy-4-phenylbut-anamido)-4-methylpentanamido)acetate hydrochloride assessed as peptidase-mediated compound formation at 80 mg/kg, iv by HPLC-MS/MS analysis; assay type: ADME, organism-based; conditions: in vivo
HUVEC = conditions: Homo sapiens, 30 uM

| SMILES | IC50 (PLC-PRF-5 [1]) [µM] | IC50 (U-266 [3]) [µM] | Activity (PLC-PRF-5 [8]) [%] | Activity (PLC-PRF-5 [9]) [%] | Activity (PLC-PRF-5 [10]) [%] | viability at 20 µM (PLC-PRF-5 [11]) [%] | Activity (PLC-PRF-5 [16]) | AUC(0-inf) [20] [µg·h/mL] | MRT inf [21] [h] | VRT (Rattus norvegicus) [hr2] | clearance [22] [L/h/kg] | Vd [23] [L/kg] | half-life [24] [h] | Cmax [25] [µg/mL] | IC50 (U-937 [28]) [µM] | IC50 (HCT-116 [29]) [µM] | IC50 (HepG2 [30]) [µM] | further results |
| --- | --- | --- | --- | --- | --- | --- | --- | --- | --- | --- | --- | --- | --- | --- | --- | --- | --- | --- |
| O=c1[nH]cc(F)c(=O)[nH]1 [FLUOROURACIL] | 35.7 | 66.2 | 20.1 | 6.8 | 0 | 73.1 | inactive | 13.6 | 2.48 | 4.205 | 5.9 | 20.1 | 2.35 | 3.81 | 28.8 | 53.8 | 18.4 | IC50 (PLC-PRF-5 [2]): 22.8 µM; IC50 (A549 [4]): 17 µM; IC50 [5]: 21.9 µM; IC50 (U-937 [6]): 9.56 µM; IC50 (U-266 [7]): 43.5 µM; Activity (PLC-PRF-5 [12]): 33.3%; Activity (PLC-PRF-5 [13]): 2.38%; Activity (PLC-PRF-5 [14]): 0%; viability at 20 µM (PLC-PRF-5 [15]): 64.3%; Activity (PLC-PRF-5 [17]): Active; Drug metabolism [18]: Metabolite_Detected; Drug metabolism [19]: Metabolite_Detected; Activity (H22): inactive; IC50 (cells [26]): 71.5 µM; IC50 (cells [27]): 37.1 µM; IC50 (HCT-116 [31]): 44.1 µM; IC50 (cells [32]): 17.6 µM; IC50 (HepG2 [33]): 14.5 µM |
| CC(C)C[C@H](NC(=O)[C@@H](O)[C@H](N)Cc1ccccc1)C(=O)O [UBENIMEX] | > 500 | > 500 | 13 | 3.59 | 0.01 | 83.4 | Active | 11.5 | 3.44 | 13.087 | 6.96 | 34.2 | 3.4 | 2.3 | 143 | 358 | > 500 | IC50 (PLC-PRF-5 [34]): 22.8 µM; IC50 [35]: 37.1 µM; IC50 (U-937 [36]): 9.56 µM; IC50 (U-266 [37]): 43.5 µM; IC50 (HCT-116 [38]): 44.1 µM; IC50 (A549 [39]): 15.9 µM; IC50 [40]: 17.6 µM; IC50 (HepG2 [41]): 14.5 µM; Activity (PLC-PRF-5 [42]): 33.3%; Activity (PLC-PRF-5 [43]): 2.38%; Activity (PLC-PRF-5 [44]): 0%; viability at 20 µM (PLC-PRF-5 [45]): 64.3%; Activity (PLC-PRF-5 [46]): Active; Drug metabolism [47]: Metabolite_Detected; inhibition (HUVEC): Active |
